# Data reported in publication PMC6582257, “Inhibition of Escherichia coli and Bacillus subtilis FtsZ Polymerization and Bacillus subtilis Growth by Dihydroxynaphtyl Aryl Ketones” (Frontiers in Microbiology, 2019).
# Several values for one entry are separate records, joined by “and”; a condition that tells them apart may be missing. Identical values can stand only once. Like-named read-outs stand apart in the source and are kept apart here.
# Tests used:
# B. subtilis [1] = test: Growth curves in liquid Müller-Hinton culture, B. subtilis; type: cell-based, Bacillus subtilis; settings: for effective concentration (total growth arrest): liquid culture
# Method: (§1) Cells were grown in liquid culture medium Müller Hinton (MH) in the presence and absence of the compound. MH medium was inoculated with an overnight culture of each strain and grown until an OD600 of 0.6 was reached. Both cultures were then diluted to OD600 of 0.1 and subsequently divided into several cultures, where the controls (without the compound and with DMSO) and different concentrations of dNAK 4 were tested. Each experimental condition was assayed in 250 μL, six times, in a 96-well ELISA plate. The cultures were grown under agitation at 37°C in a plate spectrofluorimeter with absorbance module model TECAN Infinite M200 PRO and the OD600 was automatically registered every 15 min for 24 h.
# tubulin = molecular target: tubulin; design: method as in Gutiérrez et al., 2015; settings: ref Gutiérrez et al., 2015; cited from earlier work
# BsFtsZ [2] = molecular target: T1, BsFtsZ (Bacillus subtilis, UniProt P17865); test: GDP induced BsFtsZ polymerization by light scattering; type: biochemical; settings: 32 μM compound, 2 mM GDP, 12.5 μM protein
# T1 construct: made in house; host or cells: E. coli DH10B
# T1 sequence (P17865 whole entry): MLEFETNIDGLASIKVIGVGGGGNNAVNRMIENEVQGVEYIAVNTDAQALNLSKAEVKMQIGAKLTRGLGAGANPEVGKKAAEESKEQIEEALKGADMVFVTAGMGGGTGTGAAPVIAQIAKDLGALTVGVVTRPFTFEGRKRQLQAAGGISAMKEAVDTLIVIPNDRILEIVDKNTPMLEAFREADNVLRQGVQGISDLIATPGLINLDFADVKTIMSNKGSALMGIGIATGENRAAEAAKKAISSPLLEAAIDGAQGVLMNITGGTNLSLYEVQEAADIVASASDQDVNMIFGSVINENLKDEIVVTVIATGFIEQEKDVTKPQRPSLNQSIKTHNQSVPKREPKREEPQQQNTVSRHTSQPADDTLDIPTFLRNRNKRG
# Method: (§2) Polymerization of FtsZ was determined by light scattering. Light scattering was measured on a Perkin Elmer LS 50 spectrofluorimeter, illuminating with light at a wavelength of 350 nm (excitation) and recording at the same wavelength (emission). Excitation and emission bandwidth were 7 nm and a 4% transmittance filter was used in the emission path. Temperature was kept constant at 30°C.
# (§3) Polymerization of FtsZ induced by GDP was measured in the absence and the presence of dNAK 4. 12.5 μM FtsZ was pre-incubated in 50 mM HEPES pH 7.3, 50 mM KCl, 10 mM MgCl2, 1% DMSO, and 2 mM GDP. The reaction was started by adding the compound at 32 μM final concentration.
# normal and cancer cell = test system: normal and cancer cell; design: method as in Benites et al., 2016; settings: ref Benites et al., 2016; cited from earlier work
# E. coli K12 = test: Growth curves in liquid Müller-Hinton culture, E. coli; type: cell-based, Escherichia coli; settings: up to 32 μM, 37°C
# Method: as §1
# [3] = test system: Staphylococcus aureus BEM42; test: Growth inhibition halos on bacterial lawns; type: cell-based; design: key: −: Absence (-) or presence (+) of growth inhibition halos on different bacterial lawns; Absence (-) or presence (+) of growth inhibition halos on different bacterial lawns; settings: 5 µl, 37°C 5-6 h
# Method: (§4) TABLE SM1. Effect of dNAK 4 tested directly on the growth of different bacterial […]
# (§5) Strains Amount of dNAK 4 in DMSO 30% […]
# (§6) Absence (-) or presence (+) of growth inhibition halos on different bacterial lawns.
# (§7) The bacterial lawns for each strain listed in this Table were prepared as follow:
# (§8) Bacterial cells were grown in Müller-Hinton (MH) media until an OD600 = 0.3. 300 µl of each culture was mixed with 5 ml of MH soft agar and poured into a plate containing 20 ml of MH hard agar. Once cooled, 5 µl of dNAK 4 dissolved in DMSO […]
# (§9) the top agar and incubated at 37°C during 5-6 h until growth inhibition halos were […]
# (§10) growth inhibition halos in any of the strains tested. As positive control the antibiotic minocycline was used. The experiments were performed by triplicate. The bacterial strains used in these experiments belong to our laboratory collection.
# Bacillus subtilis BEM54 = test: Growth inhibition halos on bacterial lawns; type: cell-based; design: key to growth inhibition halo: −: Absence (-) or presence (+) of growth inhibition halos on different bacterial lawns; Absence (-) or presence (+) of growth inhibition halos on different bacterial lawns; settings: for growth inhibition halo: 5 µl, 37°C 5-6 h
# Method: as §4, §5, §6, §7, §8, §9, §10
# [4] = test system: Enterobacter aerogenes BEM27; test: Growth inhibition halos on bacterial lawns; type: cell-based; design: key to growth inhibition halo: −: Absence (-) or presence (+) of growth inhibition halos on different bacterial lawns; Absence (-) or presence (+) of growth inhibition halos on different bacterial lawns; settings: for growth inhibition halo: 5 µl, 37°C 5-6 h
# Method: as §4, §5, §6, §7, §8, §9, §10
# Escherichia coli K12 = test: Growth inhibition halos on bacterial lawns; type: cell-based; design: key to growth inhibition halo: −: Absence (-) or presence (+) of growth inhibition halos on different bacterial lawns; Absence (-) or presence (+) of growth inhibition halos on different bacterial lawns; settings: for growth inhibition halo: 5 µl, 37°C 5-6 h
# Method: as §4, §5, §6, §7, §8, §9, §10
# [5] = test system: Pseudomonas aeruginosa BEM12; test: Growth inhibition halos on bacterial lawns; type: cell-based; design: key to growth inhibition halo: −: Absence (-) or presence (+) of growth inhibition halos on different bacterial lawns; Absence (-) or presence (+) of growth inhibition halos on different bacterial lawns; settings: for growth inhibition halo: 5 µl, 37°C 5-6 h
# Method: as §4, §5, §6, §7, §8, §9, §10
# Proteus mirabilis BEM87 = test: Growth inhibition halos on bacterial lawns; type: cell-based; design: key to growth inhibition halo: −: Absence (-) or presence (+) of growth inhibition halos on different bacterial lawns; Absence (-) or presence (+) of growth inhibition halos on different bacterial lawns; settings: for growth inhibition halo: 5 µl, 37°C 5-6 h
# Method: as §4, §5, §6, §7, §8, §9, §10
# B. subtilis [6] = test: Live-cell imaging of cell division in CellASIC ONIX2 microfluidic chambers; type: cell-based, Bacillus subtilis; settings: LB with 32 μM perfused 8 h, 37°C
# E. coli = test: as above; type: cell-based, Escherichia coli; settings: LB with 32 μM perfused 8 h, 37°C
# Method: In order to evaluate the effect of dNAK 4 at a cellular level, we designed a live-cell imaging approach using the microfluidics platform CellASIC ONIX2 (Merck) coupled to a Lionheart FX automated microscope (BioTek). This setup allowed us to directly monitor the division of E. coli and B. subtilis cells inside microchambers, under a precisely controlled temperature (37°C) and the continuous perfusion of fresh culture medium. The microscope was set up to take one picture of each chamber every 10 min during the whole experiment (20 h), in order to get a continuous view of the division process occurring in a group of cells and its response to the perfusion of dNAK 4. First, cells of each strain were inoculated into separate microchambers, perfusing LB medium for 4 h while monitoring cell growth. Afterwards, LB supplemented with 32 μM dNAK 4 was perfused during the next 8 h. Finally, LB medium without dNAK 4 was perfused during the last 8 h in order to monitor the effect of washing the compound. […] After washing the compound, some B. subtilis cells seemed to partially recover the ability to divide.
# 2. Live-cell imaging of E. coli and B. subtilis cell division while grown in microfluidic chambers, in the presence or absence of dNAK 4. […]
# EcFtsZ [7] = molecular target: T2, EcFtsZ (Escherichia coli, UniProt P0A9A6); test: GTP induced EcFtsZ polymerization by light scattering (PK/PEP GTP regeneration system); type: biochemical
# T2 construct: made in house; host or cells: E. coli BL21 (DE3)
# T2 sequence (P0A9A6 whole entry): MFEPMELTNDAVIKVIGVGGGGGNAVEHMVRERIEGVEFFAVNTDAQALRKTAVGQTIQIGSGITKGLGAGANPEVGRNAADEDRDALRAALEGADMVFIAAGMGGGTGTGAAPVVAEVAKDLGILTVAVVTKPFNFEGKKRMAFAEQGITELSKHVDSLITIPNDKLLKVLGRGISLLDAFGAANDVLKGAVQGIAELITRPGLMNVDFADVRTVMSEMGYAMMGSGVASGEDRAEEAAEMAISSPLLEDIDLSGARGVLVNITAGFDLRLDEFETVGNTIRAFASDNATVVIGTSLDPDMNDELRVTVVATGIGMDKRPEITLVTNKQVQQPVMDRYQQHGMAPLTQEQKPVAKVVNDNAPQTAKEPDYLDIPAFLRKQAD
# Method: as §2
# (§11) Polymerization of FtsZ induced by GTP [with GTP regeneration system PK/PEP (Margalit et al., [2004])] was measured in the absence and the presence of dNAK 4. 12.5 μM FtsZ was pre-incubated in 50 mM HEPES pH 7.3, 50 mM KCl, 10 mM MgCl2, 1% DMSO, and 1 mM PEP. The reaction was started by adding the compound (at the concentration indicated in the figures), 4 units of PK and 1 mM GTP. For each polymerization reaction, a baseline was registered, which corresponds to the light scattering after adding the compound and prior to the induction of polymerization by the addition of GTP and PK.
# EcFtsZ [8] = molecular target: T2, EcFtsZ; test: GDP induced EcFtsZ polymerization by light scattering; type: biochemical; settings: 32 μM compound, 2 mM GDP, 12.5 μM protein
# Method: as §2, §3
# BsFtsZ [9] = molecular target: T1, BsFtsZ; test: GTP induced BsFtsZ polymerization by light scattering (PK/PEP GTP regeneration system); type: biochemical
# Method: as §2, §11
# [10] = at the concentration tested (0.05-2 µg)
# [11] = calculated from the EcFtsZ polymerization inhibition by the compounds, read-out: IFP (inhibition of EcFtsZ polymerization) expressed as IC50
smiles,measurement,setting,value
"O=C(c1ccc[nH]1)c1cc(O)c2ccccc2c1O [dNAK 4, (1,4-dihydroxy-naphthalen-2-yl)-(1H-pyrrol-2-yl)-methanone]",B. subtilis growth in liquid culture,"B. subtilis [1]; 32 μM, during 16 h, Müller-Hinton, 37°C",no growth
same,effective concentration (total growth arrest),B. subtilis [1],32 µM
same,effective concentration (total growth arrest),B. subtilis [1]; conversion of 32 μM,8 µg/mL
same,Kd,tubulin,1.02 ± 0.23 µM
same,polymerization of BsFtsZ with GDP,BsFtsZ [2],induced
same,effect on normal and cancer cell proliferation,normal and cancer cell,no effect
same,effect on E. coli K12 growth in liquid culture,E. coli K12,no inhibitory effect
same,growth inhibition halo,[3]; 0.05 µg in DMSO 30%,−
same,growth inhibition halo,[3]; 0.1 µg in DMSO 30%,+
same,growth inhibition halo,[3]; 0.3 µg in DMSO 30%,+
same,growth inhibition halo,[3]; 0.5 µg in DMSO 30%,+
same,growth inhibition halo,[3]; 1 µg in DMSO 30%,+
same,growth inhibition halo,[3]; 2 µg in DMSO 30%,+
same,growth inhibition halo,Bacillus subtilis BEM54; 0.05 µg in DMSO 30%,−
same,growth inhibition halo,Bacillus subtilis BEM54; 0.1 µg in DMSO 30%,+
same,growth inhibition halo,Bacillus subtilis BEM54; 0.3 µg in DMSO 30%,+
same,growth inhibition halo,Bacillus subtilis BEM54; 0.5 µg in DMSO 30%,+
same,growth inhibition halo,Bacillus subtilis BEM54; 1 µg in DMSO 30%,+
same,growth inhibition halo,Bacillus subtilis BEM54; 2 µg in DMSO 30%,+
same,lowest amount giving growth inhibition in plate assays,"Bacillus subtilis BEM54; bacterial lawn, B. subtilis",0.1 µg
same,growth inhibition halo,[4]; 0.05 µg in DMSO 30%,−
same,growth inhibition halo,[4]; 0.1 µg in DMSO 30%,−
same,growth inhibition halo,[4]; 0.3 µg in DMSO 30%,−
same,growth inhibition halo,[4]; 0.5 µg in DMSO 30%,−
same,growth inhibition halo,[4]; 1 µg in DMSO 30%,−
same,growth inhibition halo,[4]; 2 µg in DMSO 30%,−
same,inhibitory effect in plate assays,[4]; [10],no inhibitory effect
same,growth inhibition halo,Escherichia coli K12; 0.05 µg in DMSO 30%,−
same,growth inhibition halo,Escherichia coli K12; 0.1 µg in DMSO 30%,−
same,growth inhibition halo,Escherichia coli K12; 0.3 µg in DMSO 30%,−
same,growth inhibition halo,Escherichia coli K12; 0.5 µg in DMSO 30%,−
same,growth inhibition halo,Escherichia coli K12; 1 µg in DMSO 30%,−
same,growth inhibition halo,Escherichia coli K12; 2 µg in DMSO 30%,−
same,inhibitory effect in plate assays,Escherichia coli K12; [10],no inhibitory effect
same,growth inhibition halo,[5]; 0.05 µg in DMSO 30%,−
same,growth inhibition halo,[5]; 0.1 µg in DMSO 30%,−
same,growth inhibition halo,[5]; 0.3 µg in DMSO 30%,+
same,growth inhibition halo,[5]; 0.5 µg in DMSO 30%,+
same,growth inhibition halo,[5]; 1 µg in DMSO 30%,+
same,growth inhibition halo,[5]; 2 µg in DMSO 30%,+
same,amount giving growth inhibition in plate assays,"[5]; bacterial lawn, P. aeruginosa",0.3 to 0.5 µg
same,growth inhibition halo,Proteus mirabilis BEM87; 0.05 µg in DMSO 30%,−
same,growth inhibition halo,Proteus mirabilis BEM87; 0.1 µg in DMSO 30%,−
same,growth inhibition halo,Proteus mirabilis BEM87; 0.3 µg in DMSO 30%,−
same,growth inhibition halo,Proteus mirabilis BEM87; 0.5 µg in DMSO 30%,+
same,growth inhibition halo,Proteus mirabilis BEM87; 1 µg in DMSO 30%,+
same,growth inhibition halo,Proteus mirabilis BEM87; 2 µg in DMSO 30%,+
same,amount giving growth inhibition in plate assays,"Proteus mirabilis BEM87; bacterial lawn, P. mirabilis",0.3 to 0.5 µg
same,effect on growth of B. subtilis cells,B. subtilis [6],complete growth arrest
same,effect on growth of E. coli cells,E. coli,no effect
same,IC50,"EcFtsZ [7]; from slope of light scattering increment after depolymerization vs concentration, PK/PEP GTP regeneration system, read-out: IFP expressed as IC50 (converted)",2.3 ± 0.1 µM
same,IC50,"EcFtsZ [7]; from steady-state slope of light scattering increment vs concentration, PK/PEP GTP regeneration system, read-out: IFP expressed as IC50 (converted)",4.6 µM and 4.4 µM
same,polymerization of EcFtsZ with GDP,EcFtsZ [8],induced
same,IC50,BsFtsZ [9],9.13 ± 0.66 µM
O=C(c1cccs1)c1cc(O)c2ccccc2c1O [dNAK 1],IC50,EcFtsZ [7]; [11],100 µM
O=C(c1ccco1)c1cc(O)c2ccccc2c1O [dNAK 3],IC50,EcFtsZ [7]; [11],39 µM
COc1cc(C(=O)c2cc(O)c3ccccc3c2O)cc(OC)c1OC [dNAK 5],IC50,EcFtsZ [7]; [11],81.5 µM
"O=C(c1ccc[nH]1)c1cc(O)ccc1O [dPAK 4, (2,5-dihydroxy-phenyl)-(1H-pyrrol-2-yl)-methanone]",inhibitory effect over EcFtsZ polymerization,"EcFtsZ [7]; 2-64 µM, 1% DMSO",no inhibitory effect
same,inhibitory effect over BsFtsZ polymerization,"BsFtsZ [9]; 2-64 µM, 1% DMSO",no inhibitory effect
O=C(c1ccsc1)c1cc(O)c2ccccc2c1O [dNAK 2],IC50,EcFtsZ [7]; [11],44 µM
